This passage reports viability, T/C and IC50 results from PubChem BioAssay AID2060908 (Molecular Pharmacology Branch, DTP, NCI, 2025).

In the test the test system is 186277-243-T-J2-PDC complex spheroids, viability. Nature of the test: Anticancer human tumor 186277-243-T-J2-PDC patient-derived colon adenocarcinoma cell line growth inhibition [RAS]. The note with it: for viability, T/C: stronger effect = lower value. The text has this:
RAS pathway inhibitors in Combinations in Complex Spheroids
A high-throughput screen of multi-cell type tumor spheroids was designed to identify active combinations of RAS pathway inhibitors and targeted small molecules. Complex spheroids include a stromal component modeled by human endothelial cells (HUVEC) and fibroblasts modeled by human mesenchymal stem cells (MSCs). The concentration ranges selected for each drug and investigational agent were based upon clinically achievable concentrations if the clinical Cmax of the agent was known.
Compounds. The drugs and investigational agents: abemaciclib (NSC768073), cobimetinib (NSC768068), divarasib (GDC6063, NSC841802), docetaxel (NSC628503), GDC-1971 (RLY-1971, NSC841576), gemcitabine (NSC613327), inavolisib (NSC800729), ipatasertib (NSC767898), KB-0742 (NSC834161), MRTX-1133 (NSC836407), osimertinib (NSC779217), RMC-4630 (NSC839698), RMC-6236 (NSC851965), RMC-6291 (NSC852671), Ro-3306 (NSC812927), sapanisertib (NSC764658), SN-38 (NSC673596), staurosporine (NSC755774), SY5609 (NSC837396), and tovorafenib (DAY101, NSC766906), were obtained from the National Cancer Institute (NCI) Developmental Therapeutics Program Chemical Repository. The FDA-approved anticancer drug set is available from the NCI Developmental Therapeutics Program. […] The stock solutions were prepared in dimethyl sulfoxide (DMSO, Sigma-Aldrich, St. Louis, MO, cat. D2650) at 800-fold the tested concentration and stored at -70 degrees C prior to their use. All drugs and investigational agents were tested over a range starting from a high concentration at or near the clinical Cmax and decreasing in half-log increments. If the clinical Cmax for an agent had not been determined, the highest concentration tested was 10 microM.
Cell Culture. All cells were maintained in an incubator at 37 degrees C and 5% CO2 with 95% humidity. The PDC lines were cultured according to standard operating procedures established by the NCI PDMR. All PDCs were thawed and cultured in Matrigel-coated flasks prepared with a working solution of 1X Ham's F-12 nutrient mix, without supplementation (Invitrogen, Waltham, MA, cat. 11765054), 100 U/mL penicillin-streptomycin (Invitrogen, cat. 15140122), and 2.5% Matrigel (Corning Inc., Corning, NY, cat. 354248) for the first three passages. The 362531-283-R-J2-PDC and 782815-120-R-J1-PDC lines were cultured in 6C/Colon 1B media, which includes advanced DMEM/F-12 (Thermo Fisher Scientific, cat. 12634028), 10 mM HEPES (Thermo Fisher Scientific, cat. 15630080), 1X GlutaMAX supplement (Thermo Fisher Scientific, cat. 35050061), 0.1 mg/mL primocin (InvivoGen, San Diego, CA, cat. ant-pm-2), 10% defined fetal bovine serum, heat inactivated (HyClone Laboratories Inc., Logan, UT, cat. SH30070.03HI), 50% L-WRN conditioned media (ATCC, cat. CRL-3276), 1.25 mM N-Acetyl-L-cysteine (Sigma-Aldrich, cat. A9165), 10 mM nicotinamide (Sigma-Aldrich, cat. N0636), 1X B-27 supplement (Thermo Fisher Scientific, cat. 17504044), 1X N-2 supplement (Thermo Fisher Scientific, cat. 17502048), 50 ng/mL human EGF (Thermo Fisher Scientific, cat. PHG0311), and 10 microM Y-27632 dihydrochloride (Tocris Bioscience, cat. 1254). The K12877-001-R-J1-PDC line was cultured in 6I media, which includes all 6C/Colon 1B media plus 10 ng/mL human FGF-10 (PeproTech, cat. 100-26), 1 ng/mL human FGF-2 (PeproTech, cat. 100-18B), 1 µM prostaglandin E2 (Tocris Bioscience, cat. 2296), […] hydrocortisone (Sigma-Aldrich, cat. H4001), and […] bovine insulin (Sigma-Aldrich, cat. I6634). The K86415-001-R-J1-PDC line was cultured in 6D media, which includes all 6C/Colon 1B media components minus the L-WRN conditioned media. The 485176-168-R4-J1-PDC was cultured in PANC media, which includes all 6C/Colon 1B media plus 100 ng/mL human FGF-10 (PeproTech, cat. 100-26), 500 nM SB-431542 (Selleckchem, cat. S1067), and 10 nM gastrin (Tocris Bioscience, cat. 3006). […]

Several values for one entry are separate records, joined by “and”; a condition that tells them apart may be missing. Identical values can stand only once.
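Also: spheroids exposed to compounds for 7 days before viability read.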

In general, viability, T/C refers to the ratio of treated to control. A word on the IC50: it is the midpoint of a concentration-inhibition curve. On to `CC(=O)OC12COC1CC(O)C1(C)C(=O)C(O)C3=C(C)C(OC(=O)C(O)C(NC(=O)OC(C)(C)C)c4ccccc4)CC(O)(C(OC(=O)c4ccccc4)C21)C3(C)C` (centres undefined), for which the viability, T/C was 8.57% [middle of 4 runs] (compound 0.0316 µM); 7.52% [middle of 4 runs] (compound 0.1 µM); 7.03% [middle of 4 runs] (compound 0.316 µM); 6.22% [middle of 4 runs] (compound 1 µM); 5.95% [middle of 4 runs] (compound 3.16 µM); 6.14% [middle of 4 runs] (compound 10 µM). Under “curve of compound”, the IC50 was less than 31.6 nM.

Consider `CCC(CC)c1cc(NC2CCC(N)C2)n2nccc2n1` (centres undefined), for which the viability, T/C is, setting by setting: (compound 0.0316 µM) 98.2% [middle of 4 runs]; (compound 0.1 µM) 94.7% [middle of 4 runs]; (compound 0.316 µM) 90.1% [middle of 4 runs]; (compound 1 µM) 91.8% [middle of 4 runs]; (compound 3.16 µM) 5.37% [middle of 4 runs]; (compound 10 µM) 0.37% [middle of 4 runs]. Further, the IC50 (curve of compound) is 1.77 µM [middle of 4 runs].

For `Cc1nc(N2CCC3(CC2)COC(C)C3N)c(CO)nc1Sc1ccnc(N)c1Cl` (centres undefined), the viability, T/C runs as follows: (compound 0.0316 µM) 101% [middle of 4 runs]; (compound 0.316 µM) 107% [middle of 4 runs]; (compound 1 µM) 110% (2×) and 105% and 119%; (compound 3.16 µM) 119% (2×) and 105% and 91.9%. In addition, the IC50 (curve of compound) was greater than 10000 nM.

As to `NC1c2ccccc2OC12CCN(c1cnc3c(N4CCCc5ncccc54)n[nH]c3n1)CC2` (centres undefined), the viability, T/C by setting is: (compound 0.316 µM) 99.6% [middle of 4 runs]; (compound 10 µM) 73.3% [middle of 4 runs]. Besides, under “curve of compound”, the IC50 was greater than 10000 nM.

For the compound `C=CC(=O)Nc1cc(Nc2nccc(-c3cn(C)c4ccccc34)n2)c(OC)cc1N(C)CCN(C)C` + C#Cc1c(F)ccc2cc(O)cc(-c3ncc4c(N5CC6CCC(C5)N6)nc(OCC56CCCN5CC(F)C6)nc4c3F)c12, the IC50 runs as follows: (curve of first compound, second compound 0.0316 µM) 97.4 nM; (curve of first compound, second compound 0.1 µM) 34.5 nM; (curve of first compound, second compound 0.316 µM) less than 3.16 nM; (curve of first compound, second compound 1 µM) less than 3.16 nM; (curve of first compound, second compound 3.16 µM) less than 3.16 nM; (curve of first compound, second compound 10 µM) less than 3.16 nM. The viability, T/C is, setting by setting: (second compound 0.0316 µM, first compound 0.00316 µM) 67.1%; (second compound 0.0316 µM, first compound 0.01 µM) 76.4%; (second compound 0.0316 µM, first compound 0.0316 µM) 69.8%; (second compound 0.0316 µM, first compound 0.1 µM) 37.6%; (second compound 0.0316 µM, first compound 0.316 µM) 40.9%; (second compound 0.0316 µM, first compound 1 µM) 15%. Besides, the viability, T/C was 51.4% (second compound 0.1 µM, first compound 0.00316 µM); 61.5% (second compound 0.1 µM, first compound 0.01 µM); 52.3% (second compound 0.1 µM, first compound 0.0316 µM); 28.4% (second compound 0.1 µM, first compound 0.1 µM); 16.5% (second compound 0.1 µM, first compound 0.316 µM); 8.02% (second compound 0.1 µM, first compound 1 µM). Besides, the viability, T/C is 23.2% (second compound 0.316 µM, first compound 0.00316 µM); 31.3% (second compound 0.316 µM, first compound 0.01 µM); 22.7% (second compound 0.316 µM, first compound 0.0316 µM); 13.8% (second compound 0.316 µM, first compound 0.1 µM); 10.4% (second compound 0.316 µM, first compound 0.316 µM); 6.25% (second compound 0.316 µM, first compound 1 µM). For the same compound, the viability, T/C reads like this: (second compound 1 µM, first compound 0.00316 µM) 15.8%; (second compound 1 µM, first compound 0.01 µM) 18%; (second compound 1 µM, first compound 0.0316 µM) 13.4%; (second compound 1 µM, first compound 0.1 µM) 11.4%; (second compound 1 µM, first compound 0.316 µM) 8.84%; (second compound 1 µM, first compound 1 µM) 6.02%. Moreover, the viability, T/C was 10.4% (second compound 3.16 µM, first compound 0.00316 µM); 12.5% (second compound 3.16 µM, first compound 0.01 µM); 11.1% (second compound 3.16 µM, first compound 0.0316 µM); 8.84% (second compound 3.16 µM, first compound 0.1 µM); 7.79% (second compound 3.16 µM, first compound 0.316 µM); 4.87% (second compound 3.16 µM, first compound 1 µM). Besides, the viability, T/C runs as follows: (second compound 10 µM, first compound 0.00316 µM) 9.04%; (second compound 10 µM, first compound 0.01 µM) 8.39%; (second compound 10 µM, first compound 0.0316 µM) 8.64%; (second compound 10 µM, first compound 0.1 µM) 7.72%; (second compound 10 µM, first compound 0.316 µM) 6.69%; (second compound 10 µM, first compound 1 µM) 3.95%.
